Here are results for 25 molecules from patent US12583818B2 (DAEGU-GYEONGBUK MEDICAL INNOVATION FOUNDATION, priority 2020, dated 2026).

Where two headings read alike, the source gives them in different places.

The test system of assay [1] is A2780-SP cells (ovarian cancer stem cells). Description: Sphere cell viability of A2780-SP cells (Cell-titer Glo). In kind it is cell-based. As to the method:
In order to confirm the inhibitory effect of the compound represented by formula 1 according to the present invention on the growth of MCF7, MCF7-SP, A2780 or A2780-SP cells, the following experiment was performed, and the results are shown in Tables 4 and 5 below.
On the other hand, A2780-SP cells (ovarian cancer stem cells) were plated in an Ultra-Low Attachment round bottom 96-well plate (corning) at the density of 1,500 viable cells per well, and cultured in cancer stem cell medium. The cancer stem cell medium is composed of the neurobasal medium supplemented with 20 ng/ml of bFGF, 10 ng/ml of EGF, […] of amphotericin B, HEPES, Glutamax and B27.
On the next day of culture, the cells were treated with the compound of Examples 57, and 69 to 144, followed by culture for 8 days. The medium containing the compound was added thereto once again on the 4th day. Sphere cell viability was evaluated by Cell-titer Glo (Promega, WC, USA), and luciferase activity was detected using a Tecan plate reader (Biocompare, USA).

For a further assay, the target named is T1, Pin1 (Homo sapiens, UniProt Q13526).
T1 construct: purchased Anaspec
T1 sequence (Q13526 whole entry): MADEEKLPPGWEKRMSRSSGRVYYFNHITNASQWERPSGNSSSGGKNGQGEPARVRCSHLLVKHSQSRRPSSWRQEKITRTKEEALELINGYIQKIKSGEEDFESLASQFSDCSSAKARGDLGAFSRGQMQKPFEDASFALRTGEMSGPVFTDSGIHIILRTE
Description: Evaluation of Pin1 enzyme inhibitory activity (Sensolyte Green Pin1 assay kit). In kind it is biochemical. As to the method: In order to evaluate the Pin1 enzyme inhibitory activity of the compound represented by formula 1 according to the present invention, the following experiment was performed, and the results are shown in Table 2 below.
The enzyme activity of Pin1 protein was measured using a sensolyte Green Pin1 assay kit of Anaspec. The substrate was diluted in a buffer at a ratio of 1:100 to prepare a concentration of 1 μM, and the protein was diluted in a buffer at a ratio of 1:20 to prepare a concentration of 50 μg/ml. In addition, a developing solution was prepared by diluting thereof in a buffer at a ratio of 1:100.
The compound prepared in each example was diluted with DMSO and prepared at a concentration of 100 μM, 10 μM, 1 μM or 0.1 μM using a buffer. After sequentially adding 10 μl of the compound prepared in each Example diluted to four concentrations according to the above method, 10 μl of Pin1 protein, and 30 μl of the developing solution to each well of a black 96-well plate, […]. Finally, 50 μl of the substrate was added to each well of the plate, and the enzyme reaction was carried out after shaking the plate for 10 seconds.
Then, the plate was incubated for 2 hours at room temperature in an environment without light, and the fluorescence values at 490 nm/520 nm wavelength were measured using a device of Synergy Neo […]. The results are shown in Table 2 below by dividing the grades of A to D for each concentration (μM) at which the Pin1 enzyme activity is inhibited.

Where [2] appears, read: 192 h, sphere cell viability, culture for 8 days, read-out: A2780-SP.
The mark [3] stands for this setting: Table 2, read-out: concentration at which Pin1 inhibitory activity was exhibited.
The mark [4] stands for this setting: concentration at which the Pin1 enzyme activity is inhibited, 2 hours at room temperature, fluorescence 490 nm/520 nm, read-out: Pin 1 inhibition.

In the case of `O=S(=O)(NCCCc1c[nH]c2ccc(Cl)cc12)c1ccc(NCCCN2CCNCC2)cc1` [Example 113, N-(3-(5-chloro-1H-indole-3-yl)propyl)-4-((3-(piperazine-1-yl)propyl)amino)benzenesulfonamide], the IC50 in assay [1] (setting [2]) is 1000 to 10000 nM; at Pin1 (setting [3]), < 1000 nM; at Pin1 (setting [4]), < 1000 nM.
In the case of `O=S(=O)(NCCCc1c[nH]c2ccc(Cl)cc12)c1ccc(NCCCN2CCCCC2)cc1` [Example 114, N-(3-(5-chloro-1H-indol-3-yl)propyl)-4-((3-(piperidin-1-yl)propyl)amino)benzenesulfonamide], the IC50 is 1000 to 10000 nM in assay [1] (setting [2]), < 1000 nM at Pin1 (setting [3]) and < 1000 nM on Pin1 (setting [4]).
For the molecule `CN1CCC(CCCCc2ccc(S(=O)(=O)NCCCc3c[nH]c4ccc(Cl)cc34)cc2)CC1` [Example 115, N-(3-(5-chloro-1H-indol-3-yl)propyl)-4-(4-(1-methylpiperidin-4-yl)butyl)benzenesulfonamide], the IC50 in assay [1] (setting [2]) is < 1000 nM; in assay [1] (Table 5, read-out: the concentration (second list of b710, cell line not named; matches A2780-SP column)) it was < 1000 nM; on Pin1 (setting [3]), < 1000 nM; at Pin1 (setting [4]), < 1000 nM.
With `O=S(=O)(NCCCc1c[nH]c2ccc(Cl)cc12)c1ccc(OCC2(CN3CCNCC3)CC2)cc1` [Example 117, N-(3-(5-chloro-1H-indol-3-yl)propyl)-4-((1-(piperazin-1-ylmethyl)cyclopropyl)methoxy)benzenesulfonamide], the IC50 in assay [1] (setting [2]) was 1000 to 10000 nM; on Pin1 (setting [3]) it was < 1000 nM; at Pin1 (setting [4]), < 1000 nM.
Regarding `CN1CCCN(c2cccc(Oc3ccc(S(=O)(=O)NCCCc4c[nH]c5ccc(Cl)cc45)cc3)c2)CC1` [Example 122, N-(3-(5-chloro-1H-indol-3-yl)propyl)-4-(3-(4-methyl-1,4-diazepan-1-yl)phenoxy)benzenesulfonamide], on Pin1 (setting [4]), the IC50 is 1000 to 10000 nM.
The same measure, in the same setting: the result for `O=S(=O)(NCCCc1c[nH]c2ccc(Cl)cc12)c1ccc(Nc2cccc(N3CCOCC3)c2)cc1` [Example 126, N-(3-(5-chloro-1H-indol-3-yl)propyl)-4-((3-morpholinophenyl)amino)benzenesulfonamide] reads 1000 to 10000 nM; that for `O=S(=O)(NCCCc1c[nH]c2ccc(Cl)cc12)c1ccc(Oc2cccc(N3CCOCC3)c2)cc1` [Example 128, N-(3-(5-chloro-1H-indol-3-yl)propyl)-4-(3-morpholinophenoxy)benzenesulfonamide], 1000 to 10000 nM.
As for `O=S(=O)(NCCCc1c[nH]c2ccc(Cl)cc12)c1ccc(Oc2cccc(N3CCCNCC3)c2)cc1` [Example 129, 4-(3-(1,4-diazepan-1-yl)phenoxy)-N-(3-(5-chloro-1H-indol-3-yl)propyl)benzenesulfonamide], the IC50 on Pin1 (setting [4]) lay within 1000 to 10000 nM.
As to `CN1CCN(c2cccc(Nc3ccc(S(=O)(=O)NCCCc4c[nH]c5ccc(Cl)cc45)cc3)n2)CC1` [Example 131, N-(3-(5-chloro-1H-indol-3-yl)propyl)-4-((6-(4-methylpiperazin-1-yl)pyridin-2-yl)amino)benzenesulfonamide], the IC50 on Pin1 (setting [4]) is 1000 to 10000 nM.
For the molecule `O=S(=O)(NCCCc1c[nH]c2ccc(Cl)cc12)c1ccc(Nc2cccc(N3CCNCC3)n2)cc1` [Example 132, N-(3-(5-chloro-1H-indol-3-yl)propyl)-4-((6-(piperazin-1-yl)pyridin-2-yl)amino)benzenesulfonamide], at Pin1 (setting [4]), the IC50 was 1000 to 10000 nM.
Take `O=S(=O)(NCCCc1c[nH]c2ccc(Cl)cc12)c1ccc(Oc2cccc(N3CCCC3)c2)cc1` [Example 135, N-(3-(5-chloro-1H-indol-3-yl)propyl)-4-(3-(pyrrolidin-1-yl)phenoxy)benzenesulfonamide]: the IC50 at Pin1 (setting [4]) is 1000 to 10000 nM.
In the case of `O=S(=O)(NCCCc1c[nH]c2ccc(Cl)cc12)c1ccc(Oc2cccc(N3CCC(O)CC3)c2)cc1` [Example 136, N-(3-(5-chloro-1H-indol-3-yl)propyl)-4-(3-(4-hydroxypiperidin-1-yl)phenoxy)benzenesulfonamide], on Pin1 (setting [4]), the IC50 fell in the range of 1000 to 10000 nM.
On to `O=S(=O)(NCCCc1c[nH]c2ccc(Cl)cc12)c1ccc(Nc2cccc(N3CCC(O)CC3)c2)cc1` [Example 139, N-(3-(5-chloro-1H-indol-3-yl)propyl)-4-((3-(4-hydroxypiperidin-1-yl)phenyl)amino)benzenesulfonamide], for which the IC50 on Pin1 (setting [4]) lay in the range of 1000 to 10000 nM.
Take `CN1CCN(c2cc(Cl)nc(Nc3ccc(S(=O)(=O)NCCCc4c[nH]c5ccc(Cl)cc45)cc3)c2)CC1` [Example 140, N-(3-(5-chloro-1H-indol-3-yl)propyl)-4-((6-chloro-4-(4-methylpiperazin-1-yl)pyridin-2-yl)amino)benzenesulfonamide]: the IC50 is 1000 to 10000 nM in assay [1] (setting [2]), < 1000 nM on Pin1 (setting [3]) and < 1000 nM at Pin1 (setting [4]).
As for `CN1CCN(c2cc(Nc3ccc(S(=O)(=O)NCCCc4c[nH]c5ccc(Cl)cc45)cc3)nc(N3CCN(C)CC3)c2)CC1` [Example 141, 4-((4,6-bis(4-methylpiperazin-1-yl)pyridin-2-yl)amino)-N-(3-(5-chloro-1H-indol-3-yl)propyl)benzenesulfonamide], the results for the IC50 (in assay [1] (setting [2]); on Pin1 (setting [3]); on Pin1 (setting [4])) were 1000 to 10000 nM, < 1000 nM and < 1000 nM, respectively.
On to `CN1CCN(c2ccc(Nc3ccc(S(=O)(=O)NCCCc4c[nH]c5ccc(Cl)cc45)cc3)cc2)CC1` [Example 142, N-(3-(5-chloro-1H-indol-3-yl)propyl)-4-((4-(4-methylpiperazin-1-yl)phenyl)amino)benzenesulfonamide], for which the IC50 at Pin1 (setting [4]) was 1000 to 10000 nM.
As to `O=C(NCCCc1c[nH]c2ccc(Cl)cc12)c1ccc(OCCCN2CCNCC2)cc1` [Example 144, N-(3-(5-chloro-1H-indol-3-yl)propyl)-4-(3-(piperazin-1-yl)propoxy)benzamide], the IC50 on Pin1 (setting [4]) was in the range of 1000 to 10000 nM.
Regarding `O=S(=O)(NCCCc1c[nH]c2ccc(-c3ccccc3)cc12)c1ccc(OCCCN2CCNCC2)cc1` [Example 155, N-(3-(5-phenyl-1H-indol-3-yl)propyl)-4-(3-(piperazin-1-yl)propoxy)benzenesulfonamide], at Pin1 (setting [4]), the IC50 fell in the range of 1000 to 10000 nM.
As to `CN1CCN(CCCOc2ccc(S(=O)(=O)NCCCc3c[nH]c4ccc(-c5ccccc5)cc34)cc2)CC1` [Example 156, 4-(3-(4-methylpiperazin-1-yl)propoxy)-N-(3-(5-phenyl-1H-indol-3-yl)propyl)benzenesulfonamide], on Pin1 (setting [4]), the IC50 was 1000 to 10000 nM.
Regarding `CN1CCN(CCCOc2ccc(S(=O)(=O)NCCCc3c[nH]c4ccc(Cl)cc34)cc2)CC1=O` [Example 162, N-(3-(5-chloro-1H-indol-3-yl)propyl)-4-(3-(4-methyl-3-oxopiperazin-1-yl)propoxy)benzenesulfonamide], the IC50 at Pin1 (setting [4]) fell in the range of 1000 to 10000 nM.
Turning to `O=C1CN(CCCOc2ccc(S(=O)(=O)NCCCc3c[nH]c4ccc(Cl)cc34)cc2)CCN1` [Example 163, N-(3-(5-chloro-1H-indol-3-yl)propyl)-4-(3-(3-oxopiperazin-1-yl)propoxy)benzenesulfonamide], the IC50 at Pin1 (setting [4]) was 1000 to 10000 nM.
`CN1CCN(CCCOc2ccc(S(=O)(=O)NC3CCCC(c4c[nH]c5ccc(Cl)cc45)C3)cc2)CC1` (centres unmarked) [Example 179, N-(3-(5-chloro-1H-indol-3-yl)cyclohexyl)-4-(3-(4-methylpiperazin-1-yl)propoxy)benzenesulfonamide]: on Pin1 (setting [4]), the IC50 lay in the range of 1000 to 10000 nM.
For `O=S(=O)(NC1CCCC(c2c[nH]c3ccc(Cl)cc23)C1)c1ccc(OCCCN2CCNCC2)cc1` (centres unmarked) [Example 180, N-(3-(5-chloro-1H-indol-3-yl)cyclohexyl)-4-(3-(piperazin-1-yl)propoxy)benzenesulfonamide], the IC50 on Pin1 (setting [4]) is 1000 to 10000 nM.
For the molecule `CN1CCN(CCCOc2ccc(S(=O)(=O)Nc3ccccc3C(C)(C)c3c[nH]c4ccc(Cl)cc34)cc2)CC1` [Example 181, N-(2-(2-(5-chloro-1H-indole-3-yl)propane-2-yl)phenyl)-4-(3-(4-methylpiperazine-1-yl)propoxy)benzenesulfonamide], the IC50 on Pin1 (setting [4]) fell in the range of 1000 to 10000 nM.
As to `CC(C)(c1ccccc1NS(=O)(=O)c1ccc(OCCCN2CCNCC2)cc1)c1c[nH]c2ccc(Cl)cc12` [Example 182, N-(2-(2-(5-chloro-1H-indol-3-yl)propan-2-yl)phenyl)-4-(3-(piperazin-1-yl)propoxy)benzenesulfonamide], the IC50 on Pin1 (setting [4]) was in the range of 1000 to 10000 nM.
